Counter-ions that a name gives are not always drawn.

The target in the experiment is T1, proton pump (H+/K+-ATPase) (UniProt P19156).
T1 construct: The gastric vesicle as an enzyme source was prepared by the same method as in the Experiment 1—1 of WO 94/14795
Description: Inhibition of proton pump (H+/K+-ATPase) activity, gastric vesicle enzyme source. It is filed as biochemical. The settings on record: pH 6.4, 37° C., 30 min preincubation, linear regression over 5 concentrations, read-out: IC50, inhibitory effects on proton pump (H+/K+-ATPase) activity. Here is the method: Test Example 1: Inhibition of proton pump (H^+/K^+-ATPase) activity
The gastric vesicle as an enzyme source was prepared by the same method as in the Experiment 1—1 of WO 94/14795. Further, the inhibitory effect of proton pump activity was measured by the same method as in Experiment 1-2 of WO 94/14795.
Namely, the proton pump activity stimulated by Mg^++ was used as a negative control group, and the activity stimulated by Mg^++ and K^+ was used as a positive control group. Omeprazole was used as the control compound.
Test tubes were divided into 4 groups: Group 1 as negative control group (n=3), Group 2 as positive control group (n=3), Group 3 (n=5×2) to be administered with the compound of the present invention and Group 4 (n=5×2) to be administered with the control compound.
The inhibitory effects of Group 3 and 4 on proton pump activity were measured by employing the compounds prepared in Examples and omeprazole, respectively, each of which was dissolved in dimethyl sulfoxide (DMSO) at 5 different concentrations.
To each of Groups 1, 2, 3, and 4 was added 0.1 ml of magnesium chloride (4 mM) dissolved in 40 mM Tris-HCl buffer (pH 6.4) and 100 μg of enzyme source. The 50 μl of potassium chloride (60 mM) and 50 μl of ammonium chloride (6 mM) dissolved in 40 mM Tris-HCl buffer (pH 6.4) were added to all groups except for Group 1.
10 μl of dimethyl sulfoxide was added to each of Group 1 and 2; and to Group 3 was added […] of dimethyl sulfoxide solution prepared by dissolving compound of Example at 5 different concentrations (n=5×2). To Group 4, was added 10 μl of the solution prepared by dissolving omeprazole in dimethyl sulfoxide at 5 different concentrations (40, 20, 10, 5, 2.5 μM) (n=5×2). […] Tris-HCl buffer (pH 6.4) was added thereto so as to make the total volume 400 μl.
Thereafter the test tubes of each Group were placed at 37° C. for 30 minutes for the preincubation. ATP solution (6.6 mM) was added until the total volume became 500 μl. After the reaction was carried out at 37° C. for 30 minutes, 25% cold trichloroactic acid was added to terminate the enzyme reaction. The released inorganic phosphorous was measured by an automatic analyzer (Express 550, Corning).
The difference between Group 1 and Group 2 represents the proton pump activity activated by K^+ only. The IC50s of Group 3 and 4 were calculated using the Linear Regression method. The concentrations of the test compounds inhibiting 50% of the proton pump activity are represented as IC50 in Table 1.
For `Cc1nc(Nc2ccc(F)cc2F)nc(N2CCc3cc(F)ccc3C2C)c1C` (centres unmarked) [Example 19, 5,6-dimethyl-2-(2,4-difluorophenylamino)-4-(1-methyl-6-fluoro-1,2,3,4,-tetrahydroisoquinolin-2-yl)pyrimidine hydrochloride], the IC50 was found to be 1000 nM. The value for `Cc1nc(Nc2ccc(F)c(F)c2)nc(N2CCc3ccccc3C2C)c1C` (centres unmarked) [Example 1, 5,6-dimethyl-2-(3,4-difluorophenylamino)-4-(1-methyl-1,2,3,4-tetrahydroisoquinolin-2-yl)pyrimidine hydrochloride] was 1600 nM; that for `Cc1nc(Nc2cccc(F)c2)nc(N2CCc3ccc(F)cc3C2C)c1C` (centres unmarked) [Example 12, 5,6-dimethyl-2-(3-fluorophenylamino)4-(1-methyl-7-fluoro-1,2,3,4-tetrahydroisoquinolin-2-yl)pyrimidine hydrochloride] was 3200 nM.

Turning to `Cc1nc(Nc2ccc(F)cc2F)nc(N2CCc3c(Cl)cccc3C2C)c1C` (centres unmarked) [Example 39, 5,6-dimethyl-2-(2,4-difluorophenylamino)-4-(1-methyl-5-chloro-1,2,3,4-tetrahydroisoquinolin-2-yl)pyrimidine hydrochloride], the IC50 was 900 nM. The value for `Cc1nc(Nc2ccc(F)cc2)nc(N2CCc3c(Cl)cccc3C2C)c1C` (centres unmarked) [Example 35, 5,6-dimethyl-2-(4-fluorophenylamino)-4-(1-methyl-5-chloro-1,2,3,4-tetrahydroisoquinolin-2-yl)pyrimidine hydrochloride] was 900 nM; that for `Cc1nc(Nc2ccc(F)cc2)nc(N2CCc3ccccc3C2C)c1CF` (centres unmarked) [Example 25, 5-fluoromethyl-6-methyl-2-(4-fluorophenylamino)-4-(1-methyl-1,2,3,4-tetrahydroisoquinolin-2-yl)-pyrimidine hydrochloride] was 4100 nM. The value for `Cc1cc(F)ccc1Nc1nc(C)c(C)c(N2CCc3cc(F)ccc3C2C)n1` (centres unmarked) [Example 17, 5,6-dimethyl-2-(2-methyl-4-fluorophenylamino)-4-(1-methyl-6-fluoro-1,2,3,4-tetrahydroisoquinolin-2-yl)pyrimidine hydrochloride] was 200 nM; that for `Cc1nc(Nc2ccccc2F)nc(N2CCc3ccc(F)cc3C2C)c1C` (centres unmarked) [Example 11, 5,6-dimethyl-2-(2-fluorophenylamino)-4-(1-methyl-7-fluoro-1,2,3,4-tetrahydroisoquinolin-2-yl)pyrimidine hydrochloride] was 1900 nM. With `Cc1nc(Nc2ccccc2)nc(N2CCc3ccc(F)cc3C2C)c1C` (centres unmarked) [Example 4, 5,6-dimethyl-2-phenylamino-4-(1-methyl-7-fluoro-1,2,3,4-tetrahydroisoquinolin-2-yl)pyrimidine hydrochloride], the IC50 is 1000 nM. The value for `Cc1nc(Nc2ccc(F)cc2F)nc(N2CCc3ccc(F)cc3C2C)c1C` (centres unmarked) [Example 8, 5,6-dimethyl-2-(2,4-difluorophenylamino)-4-(1-methyl-7-fluoro-1,2,3,4-tetrahydroisoquinolin-2-yl)pyrimidine hydrochloride] was 700 nM; that for `Cc1nc(Nc2ccc(F)c(F)c2)nc(N2CCc3ccc(F)cc3C2C)c1C` (centres unmarked) [Example 7, 5,6-dimethyl-2-(3,4-difluorophenylamino)-4-(1-methyl-7-fluoro-1,2,3,4-tetrahydroisoquinolin-2-yl)pyrimidine hydrochloride] was 2600 nM.

Regarding `Cc1c(CF)nc(Nc2ccc(F)cc2)nc1N1CCc2ccccc2C1C` (centres unmarked) [Example 24, 5-methyl-6-fluoromethyl-2-(4-fluorophenylamino)-4-(1-methyl-1,2,3,4-tetrahydroisoquinolin-2-yl)-pyrimidine hydrochloride], the IC50 amounted to 900 nM. To `Cc1nc(Nc2ccc(F)cc2)nc(N2CCc3cc(F)ccc3C2C)c1C` (centres unmarked) [Example 14, 5,6-dimethyl-2-(4-fluorophenylamino)-4-(1-methyl-6-fluoro-1,2,3,4-tetrahydroisoquinolin-2-yl)pyrimidine hydrochloride] belongs 700 nM; to `Cc1nc(Nc2ccc(F)cc2)nc(N2CCc3ccccc3C2CF)c1C` (centres unmarked) [Example 26, 5,6-dimethyl-2-(4-fluorophenylamino)-4-(1-fluoromethyl-1,2,3,4-tetrahydroisoquinolin-2-yl)pyrimidine hydrochloride], 3700 nM. To `Cc1nc(Nc2ccc(Cl)cc2)nc(N2CCc3ccc(F)cc3C2C)c1C` (centres unmarked) [Example 9, 5,6-dimethyl-2-(4-chlorophenylamino)-4-(1-methyl-7-fluoro-1,2,3,4-tetrahydroisoquinolin-2-yl)pyrimidine hydrochloride] belongs 900 nM. The value for `Cc1cc(F)ccc1Nc1nc(C)c(C)c(N2CCc3ccc(F)cc3C2C)n1` (centres unmarked) [Example 6, 5,6-dimethyl-2-(2-methyl-4-fluorophenylamino)-4-(1-methyl-7-fluoro-1,2,3,4-tetrahydroisoquinolin-2-yl)pyrimidine hydrochloride] was 300 nM. Consider `Cc1ccccc1Nc1nc(C)c(C)c(N2CCc3ccc(F)cc3C2C)n1` (centres unmarked) [Example 5, 5,6-dimethyl-2-(2-methylphenylamino)-4-(1-methyl-7-fluoro-1,2,3,4-tetrahydroisoquinolin-2-yl)pyrimidine hydrochloride], for which the IC50 came to 600 nM. The value for `Cc1nc(Nc2ccc(Cl)cc2)nc(N2CCc3cc(F)ccc3C2C)c1C` (centres unmarked) [Example 20, 5,6-dimethyl-2-(4-chlorophenylamino)4-(1-methyl-6-fluoro-1,2,3,4-tetrahydroisoquinolin-2-yl)pyrimidine hydrochloride] was 1200 nM; that for `COc1ccc2[nH]c([S+]([O-])Cc3ncc(C)c(OC)c3C)nc2c1` (centres unmarked) [Omeprazole, reference compound] was 11500 nM; that for `Cc1nc(Nc2ccc(F)cc2F)nc(N2CCc3ccccc3C2C)c1C` (centres unmarked) [Example 2, 5,6-dimethyl-2-(2,4-difluorophenylamino)-4-(1-methyl-1,2,3,4-tetrahydroisoquinolin-2-yl)pyrimidine hydrochloride] was 3800 nM.

The record behind these values is patent US6545008B1, “Pyrimidine derivatives and processes for the preparation thereof” (Yuhan Corporation, priority 1998, dated 2003).
